Test results from paper PMC6562844, “A Basic Study of Photodynamic Therapy with Glucose-Conjugated Chlorin e6 Using Mammary Carcinoma Xenografts” (Cancers, 2019).
Values after ≈ are worked out from the molar mass of the structure shown. Read-outs that look alike come from different tables or passages of the source.

Columns and labels:
SNP cells [1] = assay: Photodynamic cytotoxicity in SNP cells (Cell Counting Kit-8); format: cell-based, canine; details: for Cell viability compared with 0 J/cm^2 of light: p < 0.01; for IC50: Canis lupus familiaris, light or radiation study, 24 h, 24 h incubation, 650-nm laser 10 mW/cm^2, viability 24 h after PDT, read-out: IC50 against SNP cells
Method: We seeded 1 × 10^4 SNP cells into each well of 96-well plates (Corning Inc., New York, NY, USA) followed by overnight incubation. Cells were then incubated with various concentrations of G-Ce6 for 24 h at 37 °C. After washing with fresh media, the cells were irradiated with 650-nm light emitted by a semiconductor laser (Osada Electric Co., Ltd., Tokyo, Japan), using an optical fiber with a micro-lens delivery attachment (Pioneer Optics, Inc., Windsor Lock, CT, USA). PDT was performed at 10 mW/cm^2 in cells exposed to six concentrations of NPe6 and G-Ce6 (0, 0.064, 0.32, 1.6, 8.0, or 40.0 μg/mL) using four light doses (0, 1, 5, or 15 J/cm^2). The cells were then incubated for 24 h in the dark prior to examining cell viability using the Cell Counting Kit-8 (Dojindo, Kumamoto, Japan), according to the manufacturer’s instructions.

SNP tumors [2] = assay: Intratumoral localization in SNP tumors; format: in vivo, NOD/ShiJic-scidJcl mice; details: 10 mg/kg i.v.
Method: Six-week-old female NOD/ShiJic-scidJcl mice (CLEA Japan, Tokyo, Japan) were maintained in isolators under specific pathogen-free conditions. All SCID mice were housed and handled under clean conditions using a Jic rack (Jic Co., Kanagawa, Japan), sterilized water, cages, beddings, and food (CL-2; CLEA Japan, Tokyo, Japan). Food and water were given ad libitum. SNP cells were inoculated subcutaneously in the shaved lower dorsum of mice at a density of 1 × 10^6 cells in 0.1 mL phosphate buffered salts (Nacalai Tesque Inc., Kyoto, Japan) per mouse using a 26-gauge syringe. The treatments were initiated when the average tumor volume reached about 100 mm^3 in tumor model. The use of animals and the procedures employed in this study were approved by the Animal Research Committee of Tottori University (project number: 15-T-48).
To determine the intratumoral localization of G-Ce6, tumors were excised either 5 min or 3 h after G-Ce6 (10 mg/kg, i.v.) administration. Samples were immediately mounted in Tissue-Tek® O.C.T. compound (Sakura® Finetek., Tokyo, Japan) and snap-frozen in dry ice with acetone. Cryostat cross sections (10-μm slices) were taken from the center of each tumor. Each section was examined using the all-in-one fluorescence microscope with a filter (excitation, 405 nm; emission, 640 nm).

SNP tumors [3] = assay: Histological examination of SNP tumors after PDT (H&E); format: in vivo, NOD/ShiJic-scidJcl mice
Method: To examine PDT-induced histological changes in the tumor tissue and surrounding normal tissue, animals were sacrificed via cervical dislocation, and the tumors were harvested at 24 h after PDT. The tumor tissues were fixed in 10% buffered formalin and embedded in paraffin. Tumor sections were cut at a thickness of 4 μm, stained with hematoxylin & eosin (H&E), and examined under a light microscope (Olympus BX51).

[4] = Pharmacokinetics after intravenous administration in healthy dogs; format: in vivo; details: beagle, dog, plasma, i.v.; for Vd: read-out: Vdss
Method: The animal protocol using healthy beagle dogs was approved by the Animal Research Committee of the Tottori University (project number: 17-T-3). For the pharmacokinetic crossover study, 6, 3, and 1 healthy beagle dogs were intravenously administered G-Ce6 at a dose of 2, 5, and 20 mg/kg, respectively. The ages of the healthy dogs (3 males and 3 females) ranged from 6–12 years old (mean and median, 8.6 and 7.5 years, respectively); the dogs weighed 8.7–11.2 kg (mean and median, 10.2 and 10.5 kg, respectively).
The volume of G-Ce6 required to achieve the desired doses was diluted with 0.5% saline to obtain a total injection volume of 10 mL. The full injection volume was intravenously administered over 10 min at a rate of 60 mL/h using an appropriate syringe pump.
Blood samples were collected at 0, 10, and 30 min, and 1, 3, 6, and 24 h after the end of G-Ce6 injection. The samples were mixed with heparin in plastic tubes and centrifuged at 600 × g for 5 min at 4 °C; 0.2 mL of plasma from each centrifuged sample was transferred to Eppendorf tubes. The collected plasma samples were kept in the dark to avoid light exposure until assay initiation. For fluorescence measurement, plasma was read on a Fluorescence Spectrometer SH-9000Lab (excitation, 405 nm and emission, 665 nm; Hitachi High-Technologies Co., Tokyo, Japan). The concentration of G-Ce6 was determined by comparison with appropriate standards. The concentrations of G-Ce6 in the plasma were fitted to a two-compartment model and analyzed with a pharmacokinetic analysis program (http://www.pharm.kyoto-u.ac.jp/byoyaku/Kinetics/download.html). The pharmacokinetic parameters were calculated as follows: half-life (T1/2) = ln 2/β, where β is the slope of the elimination phase; volume of distribution at steady state (Vdss) = dose (A/α^2 + B/β^2)/((A/α) + (B/β))^2, where A and B are the intercepts of the distribution and elimination phases, respectively; α is the slope of the distribution phase; and clearance (CL) = dose/AUC, where AUC is the area under the curve, which was calculated using the trapezoidal method.

SNP cells [5] = assay: Photodynamic cytotoxicity in SNP cells (Cell Counting Kit-8); format: cell-based, canine; details: 650-nm laser, 1 J/cm^2, data not shown

CCC1=C(C)c2cc3[nH]c(cc4nc(c(CC(=O)OC)c5[nH]c(cc1n2)c(C)c5C(=O)OC)[C@@H](CCC(=O)OC)[C@@H]4C)c(C)c3C(C)OCCCS[C@@H]1O[C@H](CO)[C@@H](O)[C@H](O)[C@H]1O (stereo partly drawn) [G-Ce6, Methyl (7S,8S)-18-ethyl-5-(2-methoxy-2-oxoethyl)-7-(3-methoxy-3-oxopropyl)-2,8,12,17-tetramethyl-13-(1-(3-(((2S,3R,4S,5S,6R)-3,4,5-trihydroxy-6-(hydroxymethyl)tetrahydro-2H-pyran-2-yl)thio)propoxy)ethyl)-7H,8H-porphyrin-3-carboxylate]
Cell viability compared with 0 J/cm^2 of light (SNP cells [1]; 1.6 μg/mL, 15 J/cm^2): significantly lower
Cell viability compared with 0 J/cm^2 of light (SNP cells [1]; 8 μg/mL, 5 J/cm^2 and 15 J/cm^2): significantly lower
Cell viability compared with 0 J/cm^2 of light (SNP cells [1]; 40 μg/mL, 1, 5, and 15 J/cm^2): significantly lower
Cell death in the absence of laser irradiation (SNP cells [1]; <40 μg/mL G-Ce6, no laser irradiation): not observed
IC50 (SNP cells [1]; light dose 1 J/cm^2): 33.4 µg/mL (≈ 37.4 µM)
IC50 (SNP cells [1]; light dose 5 J/cm^2): 10.4 µg/mL (≈ 11.6 µM)
IC50 (SNP cells [1]; light dose 15 J/cm^2): 1.7 µg/mL (≈ 1.9 µM)
Intratumoral localization of fluorescence (SNP tumors [2]; 5 min after administration): within the tumor blood vessel
Intratumoral localization of fluorescence (SNP tumors [2]; 3 h post administration): in both tumor interstitial tissue and tumor cells
Histological findings 24 h after PDT (SNP tumors [3]; 3-h-interval PDT): cells at the superficial tumor tissue appeared necrotic, whereas deep-seated tumor cells appeared intact
Histological findings 24 h after PDT (SNP tumors [3]; 5-min-interval PDT): widespread tumor cells appeared necrotic
AUC ([4]; 5 mg/kg (n = 3)): 59700 ± 7870 ng·h/mL
Cmax ([4]; 5 mg/kg (n = 3)): 47000 ± 12200 ng/mL
clearance ([4]; 5 mg/kg (n = 3)): 1.41 mL/min/kg
half-life ([4]; 5 mg/kg (n = 3)): 170 ± 36 min
Vd ([4]; 5 mg/kg (n = 3)): 0.258 ± 0.0656 L/kg
AUC ([4]; 20 mg/kg (n = 1)): 235000 ng·h/mL
Cmax ([4]; 20 mg/kg (n = 1)): 82000 ng/mL
clearance ([4]; 20 mg/kg (n = 1)): 1.42 mL/min/kg
half-life ([4]; 20 mg/kg (n = 1)): 151 min
Vd ([4]; 20 mg/kg (n = 1)): 0.284 L/kg
AUC ([4]; both sexes, 2 mg/kg (n = 6)): 12000 ± 3180 ng·h/mL
Cmax ([4]; both sexes, 2 mg/kg (n = 6)): 15200 ± 4440 ng/mL
clearance ([4]; both sexes, 2 mg/kg (n = 6)): 2.93 mL/min/kg
half-life ([4]; both sexes, 2 mg/kg (n = 6)): 181 ± 34.8 min
Vd ([4]; both sexes, 2 mg/kg (n = 6)): 0.529 ± 0.189 L/kg
Cytotoxicity after 1 h incubation (SNP cells [5]): No cytotoxicity was observed
